Like-named read-outs stand apart in the source and are kept apart here.
Experiment: in vivo
Source text: General Protocol for Prodrugs Rat PK Studies Conducted at ChemPartner, China
A total of three naïve male Wistar Han rats, 200-250 g, were received from Beijing VR Laboratory Animal Co. LTD. Following an acclimation period, the animals were assigned to the study based on acceptable health as determined by a staff veterinarian and catheter patency. Fasting of the animals before or after dosing was not required.
On Day 1, each animal received a single intramuscular injection of prepared test article at a target dose level of 20 mg/kg equivalent of EFdA and at a dose volume of 2 mL/kg. The injection sites were at gastrocnemius and identified with an indelible marker for daily monitoring during the study. The animals were manually restrained for dosing and were not sedated. The dose suspension was mixed well by inversion before each dose to ensure homogeneity. […] In addition, all animals are monitored twice daily by the veterinary staff for clinical abnormalities.
Blood samples were collected from the study animals as detailed in the sample collection Table 6 below
Each blood sample for PK (200 μL) was collected from tail vein. The blood was transferred to a tube containing NaF/Na2EDTA anticoagulant and inverted several times to mix. Draw 150 μL whole blood from the tube, add 150 uL 100 mM ammonium acetate, pH 4 buffer and mix well. The resulting blood samples were transferred to individual polypropylene tubes and immediately placed on dry ice until storage at nominally −80° C. prior to LC-MS/MS analysis.

[1] = day 49, single IM Example 1A 20 mg/kg
[2] = day 56, single IM Example 1A 20 mg/kg
[3] = day 63, single IM Example 1A 20 mg/kg
[4] = day 70, single IM Example 1A 20 mg/kg
[5] = day 77, single IM Example 1A 20 mg/kg
[6] = day 84, single IM Example 1A 20 mg/kg
[7] = day 91, single IM Example 1A 20 mg/kg
[8] = day 77, single IM Example 2A 56 mg/kg
[9] = day 84, single IM Example 2A 56 mg/kg

C#C[C@]1(COP(=O)(N[C@@H](Cc2ccccc2)C(=O)OCCCCCCCCCCCCCCCCCCCCCC)Oc2ccccc2)O[C@@H](n2cnc3c(N)nc(F)nc32)C[C@@H]1O (single isomer, unassigned) [Example 1A]
Mean concentration of EFdA (day 21, single IM Example 1A 20 mg/kg): BQL | Mean concentration of EFdA (day 35, single IM Example 1A 20 mg/kg): BQL | Mean concentration of EFdA (day 42, single IM Example 1A 20 mg/kg): BQL | Mean concentration of EFdA [1]: BQL | Mean concentration of Example 1A [1]: BQL (BQL = below quantification limit, 0.3-0.5 ng/mL for Example 1A and 0.1-o.3 ng/mL for EFdA) | Mean concentration of EFdA [2]: BQL | Mean concentration of Example 1A [2]: BQL (BQL = below quantification limit, 0.3-0.5 ng/mL for Example 1A and 0.1-o.3 ng/mL for EFdA) | Mean concentration of EFdA [3]: BQL | Mean concentration of Example 1A [3]: BQL (BQL = below quantification limit, 0.3-0.5 ng/mL for Example 1A and 0.1-o.3 ng/mL for EFdA) | Mean concentration of EFdA [4]: BQL | Mean concentration of Example 1A [4]: BQL (BQL = below quantification limit, 0.3-0.5 ng/mL for Example 1A and 0.1-o.3 ng/mL for EFdA) | Mean concentration of EFdA [5]: BQL | Mean concentration of Example 1A [5]: BQL (BQL = below quantification limit, 0.3-0.5 ng/mL for Example 1A and 0.1-o.3 ng/mL for EFdA) | Mean concentration of EFdA [6]: BQL | Mean concentration of Example 1A [6]: BQL (BQL = below quantification limit, 0.3-0.5 ng/mL for Example 1A and 0.1-o.3 ng/mL for EFdA) | Mean concentration of EFdA [7]: BQL | Mean concentration of Example 1A [7]: BQL (BQL = below quantification limit, 0.3-0.5 ng/mL for Example 1A and 0.1-o.3 ng/mL for EFdA) | concentration at 7 day (male, Wistar Han, rat, in vivo, 20 mg/kg equivalent of EFdA, day 7, single IM Example 1A 20 mg/kg, read-out: Mean concentration of Example 1A): 6.38 ng/mL | concentration at 14 day (male, Wistar Han, rat, in vivo, 20 mg/kg equivalent of EFdA, day 14, single IM Example 1A 20 mg/kg, read-out: Mean concentration of Example 1A): 1.86 ng/mL | concentration at 21 day (male, Wistar Han, rat, in vivo, 20 mg/kg equivalent of EFdA, day 21, single IM Example 1A 20 mg/kg, read-out: Mean concentration of Example 1A): 3.42 ng/mL | concentration at 1 day (male, Wistar Han, rat, in vivo, day 1, single IM Example 1A 20 mg/kg, read-out: Mean concentration of Example 1A): 65.3 ng/mL | concentration at 28 day (male, Wistar Han, rat, in vivo, day 28, single IM Example 1A 20 mg/kg, read-out: Mean concentration of Example 1A): 2.72 ng/mL | concentration at 35 day (male, Wistar Han, rat, in vivo, day 35, single IM Example 1A 20 mg/kg, read-out: Mean concentration of Example 1A): 1.34 ng/mL | concentration at 42 day (male, Wistar Han, rat, in vivo, day 42, single IM Example 1A 20 mg/kg, read-out: Mean concentration of Example 1A): 0.633 ng/mL

C#C[C@]1(COP(=O)(N[C@@H](Cc2ccccc2)C(=O)OCCCCCCCCCCCCCCCCCCCCCC)Oc2ccccc2)O[C@@H](n2cnc3c(N)nc(F)nc32)C[C@@H]1O (single isomer, unassigned) [Example 1B]
Mean concentration of EFdA (day 1, single IM Example 1B 62 mg/kg): BQL (BQL = below quantification limit; 0.3 ng/mL for both) | Mean concentration of EFdA (day 7, single IM Example 1B 62 mg/kg): BQL (BQL = below quantification limit; 0.3 ng/mL for both) | Mean concentration of EFdA (day 14, single IM Example 1B 62 mg/kg): BQL (BQL = below quantification limit; 0.3 ng/mL for both) | Mean concentration of EFdA (day 21, single IM Example 1B 62 mg/kg): BQL (BQL = below quantification limit; 0.3 ng/mL for both) | Mean concentration of EFdA (day 28, single IM Example 1B 62 mg/kg): BQL (BQL = below quantification limit; 0.3 ng/mL for both) | Mean concentration of EFdA (day 35, single IM Example 1B 62 mg/kg): BQL (BQL = below quantification limit; 0.3 ng/mL for both) | Mean concentration of EFdA (day 42, single IM Example 1B 62 mg/kg): BQL (BQL = below quantification limit; 0.3 ng/mL for both) | Mean concentration of EFdA (day 49, single IM Example 1B 62 mg/kg): BQL (BQL = below quantification limit; 0.3 ng/mL for both) | Mean concentration of EFdA (day 56, single IM Example 1B 62 mg/kg): BQL (BQL = below quantification limit; 0.3 ng/mL for both) | Mean concentration of EFdA (day 63, single IM Example 1B 62 mg/kg): BQL (BQL = below quantification limit; 0.3 ng/mL for both) | Mean concentration of EFdA (day 70, single IM Example 1B 62 mg/kg): BQL (BQL = below quantification limit; 0.3 ng/mL for both) | Mean concentration of EFdA (day 77, single IM Example 1B 62 mg/kg): BQL (BQL = below quantification limit; 0.3 ng/mL for both) | Mean concentration of EFdA (day 84, single IM Example 1B 62 mg/kg): BQL (BQL = below quantification limit; 0.3 ng/mL for both) | concentration at 1 day (male, Wistar Han, rat, in vivo, day 1, single IM Example 1B 62 mg/kg, read-out: Mean concentration of Example 1B): 70.5 ng/mL | concentration at 7 day (male, Wistar Han, rat, in vivo, day 7, single IM Example 1B 62 mg/kg, read-out: Mean concentration of Example 1B): 8.75 ng/mL | concentration at 14 day (male, Wistar Han, rat, in vivo, day 14, single IM Example 1B 62 mg/kg, read-out: Mean concentration of Example 1B): 6.78 ng/mL | concentration at 21 day (male, Wistar Han, rat, in vivo, day 21, single IM Example 1B 62 mg/kg, read-out: Mean concentration of Example 1B): 3.53 ng/mL | concentration at 28 day (male, Wistar Han, rat, in vivo, day 28, single IM Example 1B 62 mg/kg, read-out: Mean concentration of Example 1B): 4.36 ng/mL | concentration at 35 day (male, Wistar Han, rat, in vivo, day 35, single IM Example 1B 62 mg/kg, read-out: Mean concentration of Example 1B): 1.72 ng/mL | concentration at 42 day (male, Wistar Han, rat, in vivo, day 42, single IM Example 1B 62 mg/kg, read-out: Mean concentration of Example 1B): 1.92 ng/mL | concentration at 49 day (male, Wistar Han, rat, in vivo, day 49, single IM Example 1B 62 mg/kg, read-out: Mean concentration of Example 1B): 0.912 ng/mL | concentration at 56 day (male, Wistar Han, rat, in vivo, day 56, single IM Example 1B 62 mg/kg, read-out: Mean concentration of Example 1B): 1.33 ng/mL | concentration at 63 day (male, Wistar Han, rat, in vivo, day 63, single IM Example 1B 62 mg/kg, read-out: Mean concentration of Example 1B): 0.748 ng/mL | concentration at 70 day (male, Wistar Han, rat, in vivo, day 70, single IM Example 1B 62 mg/kg, read-out: Mean concentration of Example 1B): 0.767 ng/mL | concentration at 77 day (male, Wistar Han, rat, in vivo, day 77, single IM Example 1B 62 mg/kg, read-out: Mean concentration of Example 1B): 1.55 ng/mL | concentration at 84 day (male, Wistar Han, rat, in vivo, day 84, single IM Example 1B 62 mg/kg, read-out: Mean concentration of Example 1B): 2.48 ng/mL

C#C[C@]1(COP(=O)(N[C@@H](Cc2ccccc2)C(=O)OCCCCCCCCCCCCCCCC)Oc2ccccc2)O[C@@H](n2cnc3c(N)nc(F)nc32)C[C@@H]1O (single isomer, unassigned) [Example 2A]
Mean concentration of Example 2A (day 42, single IM Example 2A 56 mg/kg): BQL | Mean concentration of Example 2A (day 49, single IM Example 2A 56 mg/kg): BQL | Mean concentration of Example 2A (day 70, single IM Example 2A 56 mg/kg): BQL | Mean concentration of EFdA [8]: BQL (BQL = below quantification limit, o.5 ng/mL for Example 2A and 0.1-0.3 ng/mL for EFdA) | Mean concentration of Example 2A [8]: BQL | Mean concentration of EFdA [9]: BQL (BQL = below quantification limit, o.5 ng/mL for Example 2A and 0.1-0.3 ng/mL for EFdA) | Mean concentration of Example 2A [9]: BQL | concentration at 1 day (male, Wistar Han, rat, in vivo, day 1, single IM Example 2A 56 mg/kg, read-out: Mean concentration of Example 2A): 3.54 ng/mL | concentration at 7 day (male, Wistar Han, rat, in vivo, day 7, single IM Example 2A 56 mg/kg, read-out: Mean concentration of Example 2A): 1.35 ng/mL | concentration at 14 day (male, Wistar Han, rat, in vivo, day 14, single IM Example 2A 56 mg/kg, read-out: Mean concentration of Example 2A): 3.35 ng/mL | concentration at 21 day (male, Wistar Han, rat, in vivo, day 21, single IM Example 2A 56 mg/kg, read-out: Mean concentration of Example 2A): 2.42 ng/mL | concentration at 28 day (male, Wistar Han, rat, in vivo, day 28, single IM Example 2A 56 mg/kg, read-out: Mean concentration of Example 2A): 4.08 ng/mL | concentration at 35 day (male, Wistar Han, rat, in vivo, day 35, single IM Example 2A 56 mg/kg, read-out: Mean concentration of Example 2A): 4.53 ng/mL | concentration at 56 day (male, Wistar Han, rat, in vivo, day 56, single IM Example 2A 56 mg/kg, read-out: Mean concentration of Example 2A): 1.14 ng/mL | concentration at 63 day (male, Wistar Han, rat, in vivo, day 63, single IM Example 2A 56 mg/kg, read-out: Mean concentration of Example 2A): 1.05 ng/mL

Reference: patent publication US20230151049A1, “Compounds Useful in HIV Therapy” (priority 2020, published 2023)
